From ChEMBL document CHEMBL1158525, “New heteroaryl nitrones with spin trap properties: Identification of a 4-furoxanyl derivative with excellent properties to be used in biological systems” (Bioorg Med Chem, 2010)
Active and inactive are the calls of the source.

Key:
Format in all cases: functional
Conditions in all cases: Microsome
Trypanosoma cruzi [1] = experiment: Antioxidant activity in Trypanosoma cruzi microsomes assessed as inhibition of NF-induced free radicals generation by EPR-based spin trap technique
Trypanosoma cruzi [2] = experiment: Antioxidant activity in Trypanosoma cruzi microsomes assessed as inhibition of PtCl2(NF)-induced free radicals generation by EPR-based spin trap technique
Trypanosoma cruzi [3] = experiment: Antioxidant activity in Trypanosoma cruzi microsomes assessed as inhibition of TBfx1-induced free radicals generation by EPR-based spin trap technique
Trypanosoma cruzi [4] = experiment: Antioxidant activity in Trypanosoma cruzi microsomes assessed as inhibition of TBfx2-induced free radicals generation by EPR-based spin trap technique

Measured: Activity

Cc1c(/C=[N+](\[O-])C(C)(C)C)no[n+]1[O-]
active: all assays above
